Experimental data published in US20230338363A1, “COMBINATION CHEMO-IMMUNOTHERAPY FOR PANCREATIC CANCER USING THE IMMUNOGENIC EFFECTS OF AN IRINOTECAN SILICASOME NANOCARRIER PLUS ANTI-PD-1” (The Regents of the University of California, priority 2020, published 2023).
Counter-ions that a name gives are not always drawn.

Key:
PANC-1 cells = test: Confirmative cellular studies (alkalization, autophagy inhibition, PD-L1 induction); type: cell-based, human; details: equivalent drug concentration 300 µM, 24 hrs
Method: To confirm the effect of IRIN, another PDAC cell line, i.e. PANC-1 cells, were used to study IRIN induced alkalization effect (panel A), autophagy inhibition (panel B) and PD-L1 induction (panel C). The treatments included free IRIN, IRIN silicasome and empty silicasome at equivalent drug concentration of 300 µM for 24 hrs. PBS served as a negative control. Bars: 10 µm. Signal intensity was quantified by Image J. At least three representative images were analyzed for each treatment. Data represents mean ± SD, n = 3. *p<0.05, **p<0.01, ***p<0.001 (1-way ANOVA followed by a Tukey’s test). […] No significant effect was observed when empty silicasome was tested.

[1] = pKa and % protonated drug (Henderson-Hasselbalch equation); type: physicochemical
Method: FIG. 9, panels A-D, illustrates a dose- and time-dependent study on IRIN-induced lysosomal alkalization effect in KPC cells. Panel A) Dose-dependence. KPC cells were treated with indicated free IRIN dose for 24 hours, followed by DND 99 and Hoechst dye co-staining, similar to FIG. 1, panel C. We were able to discern a major signal drop at 20 µM. IRIN accumulation in the KPC cells is indicated by white arrows. Panel B) Time-dependence. KPC cells were treated using 300 µM free IRIN for indicated time period, followed by DND 99/Hoechst co-staining, similar to panel A. We were able to observe a major DND 99 signal drop as early as 1 h post incubation. Quantification of DND 99 fluorescence intensity in panels A and B higher presented in FIG. 1, panel D. Panel C) Similar to the experiment described in FIG. 1, panel C, KPC cells were exposed to IRIN (300 µM) or chloroquine (CQ, 32 µM) for 24 h. The disappearance of the red fluorescence staining in the acidifying organellar environment in IRIN- and CQ-treated cells is as a result of the alkalization effect of these weak-base molecules. Bars are 10 µm. Panel D) The Henderson-Hasselbalch (H—H) equation allows calculation of % protonated drug at different pH values. Although 83.3% of IRIN molecules are protonated at pH 7.4, the equilibrium shifts to ~99% of the molecules at a lysosomal relevant pH ~4.5-5.5. […]

KPC cells [2] = test: CRT expression (flow cytometry), HMGB1 release (ELISA) and ATP release; type: cell-based, mouse
Method: 7.5×10^4 KPC cells were seeded into 24-well plates. After cell attachment, KPC cells were treated with IRIN (300 µM), OX (500 µM), DOX (20 µM or PTX (12 µM for 24 h. The cell culture media were collected in 1.5 mL tube and spun down (2,000 rpm for 5 min) to collect the supernatants for HMGB1 detection by an ELISA kit (Catalog# ST51011, IBL International GmbH). Surface CRT expression was measured by flow cytometry in the same experiment, as previously described. ^[27] Briefly, the loosely attached cells were combined with trypsin-treated adhered cells. The cells were washed in cold PBS and then stained with a primary anti-CRT antibody (Abcam, ab2907, 1: 140) in 200 µL BD staining buffer for 0.5 h on ice. The cells were washed in cold PBS and stained with an Alexa Fluor® 680-conjugated secondary antibody (LifeScience Technologies #A21244) for 30 min on ice. After washing in cold PBS, the cells were assessed in a LSRII flow cytometer (BD Biosciences).

KPC cells [3] = test: Lysosomal alkalization, LysoTracker Red DND 99 confocal microscopy; type: cell-based, mouse
Method: Approximately 1.5×10^4 KPC cells were seeded in µ-Slide 8 well (ibidi, 80826). To reveal the intracellular distribution of IRIN, attached KPC cells were treated with IRIN (300 µM) for 24 h. Cell membranes were stained using an Alexa Fluor® 594 conjugated WGA dye (Invitrogen™, W11262) at 2 µg/mL for 10 minutes. After washing, the cells were visualized using a Leica SP8-MD confocal microscope under the 100× objective lens. The excitation and emission wavelengths for IRIN were 405 nm and 440~490 nm, respectively^[51]
IRIN-treated KPC cells were washed and replenished with fresh media containing 100 nM DND-99 dye and 5 µg/mL Hoechst 33342 for nuclear staining. The cells were incubated at 37° C. for 0.5 h, followed by washing with phenol red free media. The cells were then visualized using a Leica SP8-MD confocal microscope under the 100× objective lens.
The of the IRIN silicasome on lysosomal alkalization was performed at drug concentrations of 75 µM and 300 µM in KPC cells. Empty silicasomes (in which a 500 µg/mL particle dose is representative of an encapsulated IRIN dose of 300 µM) was included as control. The assessment of LC3B, p62 and PD-L1 immunoblotting and IF staining were performed in KPC cells during treatment with the IRIN silicasome or empty silicasomes, as described for the free drug.

CCc1c2c(nc3ccc(OC(=O)N4CCC(N5CCCCC5)CC4)cc13)-c1cc3c(c(=O)n1C2)COC(=O)[C@]3(O)CC [IRIN, Irinotecan hydrochloride trihydrate]
lysosomal pH, LC-3B generation and PD-L1 expression (PANC-1 cells): capable of neutralizing lysosomal pH, triggered LC-3B generation and increase PD-L1 expression
% of molecules protonated ([1]; lysosomal relevant pH ~4.5-5.5): ~ 99%
% of molecules protonated ([1]; pH 7.4): 83.3%
ATP release (KPC cells [2]): could not demonstrate an increase in ATP release
CRT expression and HMGB1 release (KPC cells [2]; IRIN 300 µM, 24 h): strong inducer of both responses
time at which a major DND 99 signal drop is observed (KPC cells [3]; 300 µM free IRIN): 1 h
IRIN dose at which a major DND 99 signal drop is discerned (KPC cells [3]; 24 hours): 20 µM
DND 99 relative staining intensity (KPC cells [3]; IRIN 300 µM, 24 h, untreated cells 57.9 ± 1.3, Image J): 13.9 ± 0.9
